The results in this text go back to patent publication US20180263993A1, “METHOD FOR PREVENTING AND/OR TREATING CHRONIC TRAUMATIC ENCEPHALOPATHY-IV” (Eustralis Pharmaceuticals Limited (trading as Pressura …, priority 2013, published 2018).

The test system of the assay is tau phosphorylation. In words: Tau phosphorylation after concussive injury in the rat (phosphorylated tau immunohistology). Type of assay: in vivo. As to conditions: rat concussion model; 1 mg/kg intravenously at 30 min after induction of injury; assessed 3 days after the concussive event; compared with injured and non-injured animals. The source says:
Note that concussive injury in the rat causes extensive tau phosphorylation (B) by 3 days after the concussive event compared to non-injured animals (A).
Having established that hyperphosphorylated tau accumulates perivascularly following concussive injury, we used an animal model of concussion to investigate whether concussion causes perivascular release of substance P. We developed a rodent model of concussion to replicate the concussive event (Donkin et al., 2004, 7th International Neurotrauma Symposium, pp 75-78, Medimond Publishers, Bologna, Italy) and subsequently determined whether substance P was released after such an event. There was a clear increase in brain perivascular substance P immunoreactivity after the concussive event (FIG. 2).
Having shown that mechanical injury causes release of substance P after concussive injury, we then investigated whether a compound of formula (I) reduces tau hyperphosphorlation after concussive injury. […] Note that concussive injury in the rat causes extensive tau phosphorylation (B) by 3 days after the concussive event compared to non-injured animals (A). […] Thus, administration of a compound of formula (I) prevents tau hyperphosphorylation and thus prevents the development of CTE.

Consider `Cc1ccccc1-c1cc(N2CCOCC2)ncc1N(C)C(=O)C(C)(C)c1cc(C(F)(F)F)cc(C(F)(F)F)c1` [compound of formula (I), 2-[3,5-bis(trifluoromethyl)phenyl]-N,2-dimethyl-N-[4-(2-methylphenyl)-6-morpholin-4-ylpyridin-3-yl]propanamide], for which the “effect on tau phosphorylation after concussive injury” value is on record as “almost complete inhibition of tau phosphorylation”.
